Measured values published in patent US9718790B2, “Triazine derivative and pharmaceutical composition having an analgesic activity comprising the same” (SHIONOGI & CO., LTD., priority 2010, dated 2017).

Target: human P2X3 receptor (Homo sapiens (Human), UniProt P56373)
Assay: Evaluation of human P2X3 receptor inhibitory activity (Fluo-3 calcium fluorescence, FDSS 3000, ATP stimulation);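 also: stimulus was 50 nM ATP with fluorescence followed for 3 min, and the response per well was peak post-ATP fluorescence divided by the reading at measurement start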
Assay type: cell-based
Details: C6BU-1 cells stably expressing human P2X3 receptor

human P2X3 receptor, sequence (P56373 whole entry): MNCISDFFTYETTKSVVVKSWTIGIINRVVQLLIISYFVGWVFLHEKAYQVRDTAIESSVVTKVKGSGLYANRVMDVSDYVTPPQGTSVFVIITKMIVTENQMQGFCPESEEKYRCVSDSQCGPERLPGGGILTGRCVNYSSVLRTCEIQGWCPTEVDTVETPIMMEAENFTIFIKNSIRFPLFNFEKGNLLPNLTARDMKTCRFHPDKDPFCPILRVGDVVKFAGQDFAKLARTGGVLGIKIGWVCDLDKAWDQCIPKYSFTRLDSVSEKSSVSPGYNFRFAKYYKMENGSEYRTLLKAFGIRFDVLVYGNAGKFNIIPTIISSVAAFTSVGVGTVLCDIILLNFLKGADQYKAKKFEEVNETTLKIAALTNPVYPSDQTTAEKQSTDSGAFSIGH

CNC(=O)[C@@H](C)Cn1c(=O)[nH]/c(=N\c2ccc(OC(C)C)c(C)c2)n(Cc2ccc(Cl)cc2)c1=O [Compound I-0721]
IC50: 13 nM

Cc1cc(/N=c2\[nH]c(=O)n(C[C@H](O)CO)c(=O)n2Cc2ccc(Cl)cc2)ccc1OC(C)C [Compound I-0722]
IC50: 14 nM

Cc1cc(/N=c2\[nH]c(=O)n(C[C@H](C)C(=O)NCCO)c(=O)n2Cc2ccc(Cl)cc2)ccc1OC(C)C [Compound I-0723]
IC50: 24 nM

COc1ccc(/N=c2\[nH]c(=O)n(C[C@H](C)C(=O)O)c(=O)n2Cc2ccc(Cl)cc2)cc1Cl [Compound I-0724]
IC50: 250 nM

Cc1cc(/N=c2\[nH]c(=O)n(Cc3ccc[nH]c3=O)c(=O)n2Cc2ccc(Cl)cc2)ccc1OC(C)C [Compound I-0725]
IC50: 14 nM

Cc1cc(/N=c2\[nH]c(=O)n(C[C@H](C)C(=O)NCC(F)(F)F)c(=O)n2Cc2ccc(Cl)cc2)ccc1OC(C)C [Compound I-0726]
IC50: 16 nM

CC[C@@H](C)Oc1ccc(/N=c2\[nH]c(=O)n(C[C@H](C)C(=O)OC)c(=O)n2Cc2ccc(Cl)cc2)cc1 [Compound I-0727]
IC50: 12 nM

CC[C@H](C)Oc1ccc(/N=c2\[nH]c(=O)n(C[C@H](C)C(=O)OC)c(=O)n2Cc2ccc(Cl)cc2)cc1 [Compound I-0728]
IC50: 14 nM

Cc1cc(/N=c2\[nH]c(=O)n(CC[C@H](NC(=O)OC(C)(C)C)C(=O)O)c(=O)n2Cc2ccc(Cl)cc2)ccc1OC(C)C [Compound I-0732, (S)-1-(4-chlorobenzyl)-3-(3-t-butoxycarbonylamino-3-hydroxycarbonylpropyl)-6-(3-mehyl-4-isopropoxyphenylimino)-1,3,5-triazinane-2,4-dion]
IC50: 41 nM

C[C@@H](Cn1c(=O)[nH]/c(=N\c2ccc(OCCO)cc2)n(Cc2ccc(Cl)cc2)c1=O)C(=O)O [Compound I-0733]
IC50: 287 nM

CCOC(=O)/C(Cn1c(=O)[nH]/c(=N\c2ccc(OC(C)C)c(F)c2)n(Cc2ccc(Cl)cc2)c1=O)=N/OC [Compound I-0735, 1-(4-chlorobenzyl)-6-(3-fluoro-4-isopropoxyphenylimino)-3-(2-ethoxycarbonyl-2-methoxyiminoethyl)-1,3,5-triazinane-2,4-dion]
IC50: 7 nM

Cc1cc(/N=c2\[nH]c(=O)n(CC[C@H](N)C(=O)O)c(=O)n2Cc2ccc(Cl)cc2)ccc1OC(C)C [Compound I-0736, (S)-1-(4-chlorobenzyl)-3-(3-amino-3-hydroxycarbonylpropyl)-6-(3-mehyl-4-isopropoxyphenylimino)-1,3,5-triazinane-2,4-dion]
IC50: 131 nM

CO/N=C(\Cn1c(=O)[nH]/c(=N\c2ccc(OC(C)C)c(F)c2)n(Cc2ccc(Cl)cc2)c1=O)C(=O)O [Compound I-0737, 1-(4-chlorobenzyl)-6-(3-fluoro-4-isopropoxyphenylimino)-3-(2-hydroxycarbonyl-2-methoxyiminoethyl)-1,3,5-triazinane-2,4-dion]
IC50: 140 nM

COC(=O)[C@@H](C)Cn1c(=O)[nH]/c(=N\c2ccc(OCC(F)F)c(C)c2)n(Cc2ccc(Cl)cc2)c1=O [Compound I-0738]
IC50: 19 nM

CC(C)Oc1ccc(/N=c2\[nH]c(=O)n(CC(=O)N3CCOCC3)c(=O)n2Cc2ccc(Cl)cc2)cc1Cl [Compound I-0739]
IC50: 29 nM

CC(C)Oc1ccc(/N=c2\[nH]c(=O)n(CC(=O)N3CCN(C(=O)OC(C)(C)C)CC3)c(=O)n2Cc2ccc(Cl)cc2)cc1Cl [Compound I-0740]
IC50: 221 nM

Cc1cc(/N=c2\[nH]c(=O)n(C[C@H](C)C(=O)O)c(=O)n2Cc2ccc(Cl)cc2)ccc1OCC(F)F [Compound I-0741]
IC50: 50 nM

CC(C)Oc1ccc(/N=c2\[nH]c(=O)n(CC(=O)N3CCNCC3)c(=O)n2Cc2ccc(Cl)cc2)cc1Cl [Compound I-0742]
IC50: 38 nM

CCCOc1ccc(/N=c2\[nH]c(=O)n(C[C@H](C)C(=O)OC)c(=O)n2Cc2ccc(Cl)cc2)cc1Cl [Compound I-0743]
IC50: 13 nM

COC(=O)[C@@H](C)Cn1c(=O)[nH]/c(=N\c2ccc3c(c2)COCO3)n(Cc2ccc(Cl)cc2)c1=O [Compound I-0744]
IC50: 53 nM

COCCOc1ccc(/N=c2\[nH]c(=O)n(C[C@H](C)C(=O)OC)c(=O)n2Cc2ccc(Cl)cc2)cc1 [Compound I-0745]
IC50: 125 nM

C[C@@H](Cn1c(=O)[nH]/c(=N\c2ccc3c(c2)COCO3)n(Cc2ccc(Cl)cc2)c1=O)C(=O)O [Compound I-0746]
IC50: 140 nM

CCCOc1ccc(/N=c2\[nH]c(=O)n(C[C@H](C)C(=O)O)c(=O)n2Cc2ccc(Cl)cc2)cc1Cl [Compound I-0747]
IC50: 12 nM

COCCOc1ccc(/N=c2\[nH]c(=O)n(C[C@H](C)C(=O)O)c(=O)n2Cc2ccc(Cl)cc2)cc1 [Compound I-0748]
IC50: 295 nM

COC(=O)[C@@H](C)Cn1c(=O)[nH]/c(=N\c2ccc(OCC(C)C)cc2)n(Cc2ccc(Cl)cc2)c1=O [Compound I-0749]
IC50: 27 nM

CC(C)COc1ccc(/N=c2\[nH]c(=O)n(C[C@H](C)C(=O)O)c(=O)n2Cc2ccc(Cl)cc2)cc1 [Compound I-0750]
IC50: 22 nM

CC[C@@H](C)Oc1ccc(/N=c2\[nH]c(=O)n(C[C@H](C)C(=O)O)c(=O)n2Cc2ccc(Cl)cc2)cc1 [Compound I-0754]
IC50: 16 nM

CC[C@H](C)Oc1ccc(/N=c2\[nH]c(=O)n(C[C@H](C)C(=O)O)c(=O)n2Cc2ccc(Cl)cc2)cc1 [Compound I-0755]
IC50: 24 nM

CO/N=C(\Cn1c(=O)[nH]/c(=N\c2ccc(OC(C)C)c(C)c2)n(Cc2ccc(Cl)cc2)c1=O)C(=O)O [Compound I-0756]
IC50: 131 nM

COC(=O)Cn1cccc(Cn2c(=O)[nH]/c(=N\c3ccc(OC(C)C)c(C)c3)n(Cc3ccc(Cl)cc3)c2=O)c1=O [Compound I-0757]
IC50: 35 nM

CC(C)Oc1ccc(/N=c2\[nH]c(=O)n(CCC(=O)NC#N)c(=O)n2Cc2ccc(Cl)cc2)cc1F [Compound I-0758, 1-(4-chlorobenzyl)-6-(3-fluoro-4-isopropoxyphenylimino)-3-[2-(cyanocarbamoyl)ethyl]-1,3,5-triazinane-2,4-dion]
IC50: 19 nM

Cc1cc(/N=c2\[nH]c(=O)n(Cc3cccn(CC(=O)O)c3=O)c(=O)n2Cc2ccc(Cl)cc2)ccc1OC(C)C [Compound I-0760]
IC50: 37 nM

COC(=O)C[C@@H](C)Cn1c(=O)[nH]/c(=N\c2ccc(OC(C)C)c(C)c2)n(Cc2ccc(Cl)cc2)c1=O [Compound I-0761]
IC50: 15 nM

Cc1cc(/N=c2\[nH]c(=O)n(-c3ccc(C(=O)O)cc3)c(=O)n2Cc2ccc(Cl)cc2)ccc1OC(C)C [Compound I-0762]
IC50: 82 nM

COC(=O)[C@@H](C)Cn1c(=O)[nH]/c(=N\c2ccc(OC(C)C)c(Cl)c2)n(Cc2ccccc2)c1=O [Compound I-0763]
IC50: 80 nM

COC(=O)[C@@H](C)Cn1c(=O)[nH]/c(=N\c2ccc(OC(C)C)c(C)c2)n(Cc2ccccc2)c1=O [Compound I-0764]
IC50: 254 nM

Cc1cc(/N=c2\[nH]c(=O)n(C[C@H](C)CC(=O)O)c(=O)n2Cc2ccc(Cl)cc2)ccc1OC(C)C [Compound I-0765]
IC50: 40 nM

COC(=O)[C@@H](C)Cn1c(=O)[nH]/c(=N\c2ccc(CC#N)c(Cl)c2)n(Cc2ccc(Cl)cc2)c1=O [Compound I-0766]
IC50: 438 nM

COCCOc1ccc(/N=c2\[nH]c(=O)n(C[C@H](C)C(=O)OC)c(=O)n2Cc2ccc(Cl)cc2)cc1Cl [Compound I-0767]
IC50: 88 nM

COC(=O)[C@@H](C)Cn1c(=O)[nH]/c(=N\c2ccc3c(c2)CCC3)n(Cc2ccc(Cl)cc2)c1=O [Compound I-0769]
IC50: 207 nM
